Patent US7964631B2, “Fused tricyclic compounds as inhibitors of tumor necrosis factor-α” (Piramal Life Sciences Limited, priority 2004, dated 2011)

Legend:
[1] = system: peripheral blood mononuclear cells (PBMC); assay: Cytotoxicity of test compounds in PBMC, cell viability by MTS reagent; type: cell-based, human
Description: (§1) TNF-α production by LPS in peripheral blood mononuclear cells (PBMC) was measured according to the method described by Henry et al (J. Bioorg. Med. Chem. Lett., 8: 3335-3340, 1998). Briefly, blood was collected from healthy donors into Potassium EDTA vacutainer tubes (Vacutest Plast/Becton Dickinson). PBMC were isolated using gradient centrifugation in Ficoll-Paque solution (Pharmacia). Isolated PBMC were suspended in RPMI 1640 culture medium (Gibco BRL, Pasley, UK) containing 10% fetal bovine serum (FBS) (Hyclone, Utah, USA), 100 U/ml penicillin (Sigma Chemical Co. St Louis, Mo.) and 100 μg/ml streptomycin (Sigma Chemical Co. St Louis, Mo.). The cell concentration was adjusted to 1×10^6 cells/ml. The viability as determined by trypan blue dye exclusion was uniformly ≧98%. The cell suspension (100 μl) was added to the wells of a 96-well culture plate. Following cell plating, 79 μl of the culture medium and 1 μl of eight different concentrations of the test compounds (final concentration 0.03, 0.1, 0.3, 1, 3, 10, 30, 100 μM) dissolved in DMSO (dimethylsulfoxide, Sigma, Mo., USA) were added to the cells. The final concentration of DMSO was adjusted to 0.5%. The appropriate DMSO concentration was used as control. Rolipram (30 μM) was used as a standard compound. The plates were incubated for 30 min at 37° C. in an atmosphere of 5% CO2. Finally, 20 μl (10 μg/ml) per well of LPS, (Escherchia coli 0127:B8, Sigma Chemical Co., St. Louis, Mo.) was added, for a final concentration of 1 μg/ml. The plates were incubated at 37° C. for 4.5 h in an atmosphere of 5% CO2. To determine the cytotoxicity of the test compounds, the cell viability was assessed using MTS (3-(4,5-dimethylthiazol-2-yl)-5-(3-carboxymethoxyphenyl)-2-(4-sulfonyl)-2H-tetrazolium) reagent (Promega) after 4.5 h of incubation. Supernatants were harvested and assayed for TNF-α by ELISA as described by the manufacturer (R&D Systems, MN, BD Biosciences Pharmingen) or by cytotoxicity bioassay in L929 cells. The 50% inhibitory concentration (IC50) values were calculated by a nonlinear regression method using GraphPad software (Prism 3.03)

TNF-α [2] = assay: LPS-induced TNF-α production in peripheral blood mononuclear cells (secondary screening); type: cell-based
Description: as §1

TNF-α [3] = assay: Whole blood cell culture assay: LPS-induced TNF-α release (primary screening); type: cell-based, human; conditions: test compound 1 μM, diluted whole blood of healthy donors, LPS 1 μg/ml, 4.5 h, vs DMSO control; for inhibition at 1 µM: Homo sapiens, Whole blood cell
Description: TNF-α production by lipopolysaccharide (LPS) in whole blood was measured according to the method described by Wilson et al (J. Immunol. Methods, 139: 233-240, 1991). Briefly, blood was collected from healthy donors into potassium EDTA vacutainer tubes (Vacutest Plast/Becton Dickinson) and diluted with RPMI 1640 culture medium (Gibco BRL, Pasley, UK) containing 100 U/ml penicillin and 100 μg/ml streptomycin, (100× solution, Sigma Chemical Co. St Louis, Mo.) with no added serum. The white blood cell count was adjusted to 1×10^6 cells/ml and 100 μl/well of the diluted blood was transferred into 96-well culture plates. Following cell plating, 79 μl of culture medium and 1 μl of the test compounds (final concentration 1 μM) dissolved in DMSO (dimethylsulfoxide, Sigma, Mo., USA) was added to the cells. The final concentration of DMSO was adjusted to 0.5%. 1 μl of vehicle (0.5% DMSO) was used as control. Rolipram (100 μM) was used as a standard compound. The plates were incubated for 30 min at 37° C. in an atmosphere of 5% CO2. Finally, 20 μl (10 μg/ml) per well of LPS (Escherchia coli 0127:B8, Sigma Chemical Co., St. Louis, Mo.) was added, for a final concentration of 1 μg/ml. Plates were incubated at 37° C. for 4.5 h in an atmosphere of 5% CO2. Supernatants were harvested and assayed for TNF-α by ELISA as described by the manufacturer (R&D Systems, MN) or by cytotoxicity bioassay in L929 cells. Percent inhibition of TNF-α release in comparison to the control was calculated.

[4] = 4.5 h, TNF-α production in PBMC, LPS 1 μg/ml, ELISA or L929 bioassay

| Structure (SMILES) | melting point | % toxicity (10 μM), 5 h [1] | IC50 (TNF-α [2]; [4]) | also measured |
| --- | --- | --- | --- | --- |
| COC(=O)c1cc(C)c2c(c1)S(=O)(=O)Cc1cc(N(CCCl)CCCl)cc(Cl)c1O2 | 190 to 191 °C |  |  |  |
| COC(=O)c1cc(C)c2c(c1)S(=O)(=O)Cc1cc(NC(=O)CCl)cc(Cl)c1O2 [Example 4, 4-Chloro-2-(2-chloro-acetylamino)-6-methyl-10,10-dioxo-10,11-dihydro-5-oxa-10lambda*6*-thia-dibenzo[a,d]cycloheptene-8-carboxylic acid methyl ester] | 292 to 293 °C |  |  |  |
| COC(=O)c1cc(C)c2c(c1)S(=O)(=O)Cc1cc(NC(=O)CO)cc(Cl)c1O2 [Example 5A, 4-Chloro-2-(2-hydroxy-acetylamino)-6-methyl-10,10-dioxo-10,11-dihydro-5-oxa-10lambda*6*-thia-dibenzo[a,d]cycloheptene-8-carboxylic acid methyl ester] |  | 00% | 8600 ± 1300 nM |  |
| COC(=O)c1cc(C)c2c(c1)S(=O)(=O)Cc1cc(NC(=O)COC(C)=O)cc(Cl)c1O2 [Example 5B, 2-(2-Acetoxy-acetylamino)-4-chloro-6-methyl-10,10-dioxo-10,11-dihydro-5-oxa-10lambda*6*-thia-dibenzo[a,d]cycloheptene-8-carboxylic acid methyl ester] |  | 00% | 9100 ± 1600 nM |  |
| CCC(=O)Nc1cc(Cl)c2c(c1)CS(=O)(=O)c1cc(C(=O)OC)cc(C)c1O2 [Example 6, 4-Chloro-6-methyl-10,10-dioxo-2-propionylamino-10,11-dihydro-5-oxa-10lambda*6*-thia-dibenzo[a,d]cycloheptene-8-carboxylic acid methyl ester] | 226 to 228 °C |  |  | inhibition at 1 µM (TNF-α [3]): 89% |
| COC(=O)c1cc(C)c2c(c1)S(=O)(=O)Cc1cc(NC=O)cc(Cl)c1O2 [Example 9, 4-Chloro-2-formylamino-6-methyl-10,10-dioxo-10,11-dihydro-5-oxa-10lambda*6*-thia-dibenzo[a,d]cycloheptene-8-carboxylic acid methyl ester] | 258 to 262 °C (dec.) | 09% | 2600 nM | inhibition at 1 µM (TNF-α [3]): 31% |
| CCOC(=O)c1cc(C)c2c(c1)S(=O)(=O)Cc1cc(NC=O)cc(Cl)c1O2 [Example 10, 4-Chloro-2-formylamino-6-methyl-10,10-dioxo-10,11-dihydro-5-oxa-10lambda*6*-thia-dibenzo[a,d]cycloheptene-8-carboxylic acid ethyl ester] | 202 to 204 °C |  |  |  |
| COC(=O)c1cc(C)c2c(c1)S(=O)(=O)Cc1cc(N(CCO)CCO)cc(Cl)c1O2 [Example 13, 2-[Bis-(2-hydroxy-ethyl)-amino]-4-chloro-6-methyl-10,10-dioxo-10,11-dihydro-5-oxa-10lambda*6*-thia-dibenzo[a,d]cycloheptene-8-carboxylic acid methyl ester] | 199 to 201 °C |  |  |  |
| COC(=O)c1cc(C)c2c(c1)[S+]([O-])Cc1cc(N3CCNCC3)cc(Cl)c1O2.Cl (stereo not drawn) [Example 15, 4-Chloro-6-methyl-10-oxo-2-piperazin-1-yl-10,11-dihydro-5-oxa-10lambda*4*-thia-dibenzo[a,d]cycloheptene-8-carboxylic acid methyl ester hydrochloride] | > 320 °C | 25% | 550 nM |  |
| COC(=O)c1cc(C)c2c(c1)S(=O)(=O)Cc1cc(N3CCNCC3)cc(Cl)c1O2.CS(=O)(=O)O [Example 17, 4-Chloro-6-methyl-10,10-dioxo-2-piperazin-1-yl-10,11-dihydro-5-oxa-10lambda*6*-thia-dibenzo[a,d]cycloheptene-8-carboxylic acid methyl ester mesylate] | 279 to 281 °C | 66% |  | IC50 (TNF-α [2]; TNF-α production in PBMC; LPS 1 μg/ml, 4.5 h; ELISA or L929 bioassay; mesylate): 100 nM |
| CS(=O)(=O)O.Cc1cc(C(=O)O)cc2c1Oc1c(Cl)cc(N3CCNCC3)cc1CS2(=O)=O [Example 19, 4-Chloro-6-methyl-10,10-dioxo-2-piperazin-1-yl-10,11-dihydro-5-oxa-10lambda*6*-thia-dibenzo[a,d]cycloheptene-8-carboxylic acid mesylate] | 278 to 280 °C |  |  |  |
| COC(=O)c1cc(C)c2c(c1)S(=O)(=O)Cc1cc(N3CCOCC3)cc(Cl)c1O2 [Example 30, 4-Chloro-6-methyl-2-morpholin-4-yl-10,10-dioxo-10,11-dihydro-5-oxa-10lambda*6*-thia-dibenzo[a,d]cycloheptene-8-carboxylic acid methyl ester] | > 320 °C |  |  |  |
| COC(=O)c1cc(C)c2c(c1)S(=O)(=O)Cc1ccc(NCCN)c(Cl)c1O2.Cl [Example 31, 3-(2-Amino-ethylamino)-4-chloro-6-methyl-10,10-dioxo-10,11-dihydro-5-oxa-10lambda*6*-thia-dibenzo[a,d]cycloheptene-8-carboxylic acid methyl ester hydrochloride] |  | 21% | 840 nM | inhibition at 1 µM (TNF-α [3]): 66% |
| CCN1CCN(c2cc(Cl)c3c(c2)CS(=O)(=O)c2cc(CO)cc(C)c2O3)CC1 [Example 34, [4-Chloro-2-(4-ethyl-piperazin-1-yl)-6-methyl-10,10-dioxo-10,11-dihydro-5-oxa-10lambda*6*-thia-dibenzo[a,d]cyclohepten-8-yl]-methanol] | 230 to 232 °C |  |  |  |
| Cc1cc(C=O)cc2c1Oc1c(Cl)cc(N3CCNCC3)cc1CS2(=O)=O [Example 35, 4-Chloro-6-methyl-10,10-dioxo-2-piperazin-1-yl-10,11-dihydro-5-oxa-10lambda*6*-thia-dibenzo[a,d]cycloheptene-8-carbaldehyde] |  | 07% | 1400 nM | inhibition at 1 µM (TNF-α [3]): 45% |
| COC(=O)c1cc(C)c2c(c1)S(=O)(=O)Cc1cc(N)cc(Cl)c1N2 [Example 37, 2-Amino-4-chloro-6-methyl-10,10-dioxo-10,11-dihydro-5H-10lambda*6*-thia-5-aza-dibenzo[a,d]-cycloheptene-8-carboxylic acid methylester] | 278 to 280 °C |  |  | inhibition at 1 µM (TNF-α [3]): 33% |
| COC(=O)c1cc(C)c2c(c1)S(=O)(=O)Cc1cc(NC=O)cc(Cl)c1N2 [Example 38, 4-Chloro-2-formylamino-6-methyl-10,10-dioxo-10,11-dihydro-5H-10-lambda*6*-thia-5-aza-dibenzo[a,d]-cycloheptene-8-carboxylic acid methyl ester] |  | 10 ± 04% |  | % inhibition of TNF-α release (TNF-α [3]): 45%; IC50 (TNF-α [2]; TNF-α production in PBMC; LPS 1 μg/ml, 4.5 h; ELISA or L929 bioassay): 1200 ± 1580 nM |
| COC(=O)c1ccc2c(c1)S(=O)(=O)Cc1ccccc1C2O (stereo not drawn) [Example 40, 5-Hydroxy-10,10-dioxo-10,11-dihydro-5H-10lambda*6*-thia-dibenzo[a,d]cycloheptene-8-carboxylic acid methyl ester] |  | 8% | > 10000 nM |  |
